The values that follow come from patent publication US8497298B2, “Use of benzo-fused heterocycle sulfamide derivatives for lowering lipids and lowering blood glucose levels” (Janssen Pharmaceutica NV, priority 2005, dated 2013).

The experiment deals with db/db mice. The experiment is described as follows: Diabetic db/db Mouse In Vivo Assay (Example 13). The following applies: female db/db mice, A300 mg/kg oral gavage once daily. An excerpt: Db/db mice are known in the art to be susceptible to Type II diabetes (Sharma K, McCue P, Dunn S R. Am J Physiol Renal Physiol. 2003 June;284(6):F1138-44). The Db/db mice are also known in the art to be a useful model for dylipidemia.
Female db/db mice (C57BL/6J-Lep^db/db, Jackson Laboratories, Bar Harbor, Me., USA) were received at 8 weeks of age and single-housed and fed with regular chow diet. Blood was collected by tail puncture and glucose was monitored with a glucometer (OneTouch Basic, Lifescan, Newtown, Pa.).
Mice at 10 weeks of age were randomized into treatment groups based on glucose values (first criterion, average of 250 mg/dl) and body weight (second criterion, average of 37 gram). The mice were orally gavaged once daily (0.2 ml at 1500-1700 hour) with vehicle control (0.5% methylcellulose, pH7.4) and vehicle containing test compound (A300 mg/kg). On day 11, the mice were fasted for 4 hr during light cycle (food was removed 0600-1000 hour) and blood glucose levels were measured through tail puncture with a glucometer at 1000 hour. The mice were then anaesthetized with sodium pentobarbital (1 ml/kg, i.p, Sleepaway, Fort Dodge, Iowa) and blood was drawn via cardiac puncture and collected into heparinized tubes.
White adipose tissue (WAT) (retroperitoneal fat) and skeletal muscle (gastrocnemius and soleus muscle) were dissected and weighed. Plasma samples were obtained by centrifuge at 2,000 g for 15 minutes at 4° C. and subjected to measurement of insulin, HDL cholesterol and triglyceride.
Data shown below are expressed as the mean and standard error calculated using 9-10 mice per treatment group. The 2 tailed Student's t-Tests were used for statistic analysis. All animal studies complied with the guideline of the Institutional Animal Care and Use Committee.

On to `NS(=O)(=O)NC[C@H]1COc2cc(Cl)ccc2O1` [Compound #8, (2S)-(−)-N-(6-Chloro-2,3-dihydro-benzo[1,4]dioxin-2-ylmethyl)-sulfamide], for which, for the setting “day 11”, the “Retroperitoneal Fat Weight” value came to 1.31 ± 0.07 g and the “Skeletal Muscle Weight” value turned out to be 0.154 ± 0.00 g. Further, the “Blood Glucose” value (day 11, fasted 4 hr) came out at 210 ± 27 mg/dL. Under “day 11, plasma”, the “HDL Cholesterol” value stood at 55.9 ± 3.7 mg/dL and the Triglycerides came to 98 ± 41 mg/dL. In addition, where the note is “p<0.01 vs vehicle 27.9±1.4”, the “fat to lean mass ratio” value was found to be 23.4±0.9. For the same molecule, the “Insulin levels versus vehicle treated animals” value (plasma) is on record as “not statistically different”.
